Here are results for 17 compounds from ChEMBL document CHEMBL3132847, “Pseudopeptides with a centrally positioned alkene-based disulphide bridge mimetic stimulate kallikrein-related peptidase 3 activity” (Medchemcomm, 2013).

The structures appear in SMILES notation. Calls of active or inactive are those of the source. The calls are words filed in the database; no cut-off is given here. Bridge positions count the residues as written; N and C are the ends. Square brackets hold non-standard residues; d marks the D form. Peptide text beside a SMILES is read from it. AllylGly = C=CC[C@H](N)C(=O)O; Aoc = NCCCCCCCC(=O)O

The target in the first experiment is T1, Prostate-specific antigen (Homo sapiens) (UniProt P07288).
T1 sequence (whole entry): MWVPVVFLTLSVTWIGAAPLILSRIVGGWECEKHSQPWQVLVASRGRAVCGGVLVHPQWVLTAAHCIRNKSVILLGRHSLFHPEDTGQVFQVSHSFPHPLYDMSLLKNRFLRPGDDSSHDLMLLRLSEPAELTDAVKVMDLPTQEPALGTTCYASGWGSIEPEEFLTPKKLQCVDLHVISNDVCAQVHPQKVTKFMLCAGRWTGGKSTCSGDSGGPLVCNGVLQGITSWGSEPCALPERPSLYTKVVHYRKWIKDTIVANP
As to the kind of experiment: Stimulation of KLK3 (unknown origin) proteolytic activity using chromogenic chymotrypsin MeO-Suc-Arg-Pro-Tyr-pNA substrate at 200 ug/ml pre-incubated for 30 mins before addition of substrate by […] relative to untreated control.
`CC(C)[C@@H]1NC(=O)[C@@H](N)CSSC[C@@H](C(=O)O)NC(=O)[C@H]([C@@H](C)O)NC(=O)[C@H](Cc2c[nH]c3ccccc23)NC(=O)[C@@H]2C/C=C/C[C@H](NC(=O)[C@H](Cc3ccc(O)cc3)NC(=O)[C@H](C)NC1=O)C(=O)N[C@@H](Cc1ccccc1)C(=O)N[C@@H](CCC(=O)O)C(=O)N[C@@H](Cc1cnc[nH]1)C(=O)N[C@@H](Cc1cnc[nH]1)C(=O)N2` (H-CVAY[AllylGly]FEHH[AllylGly]WTC-OH; disulfide 1-13; staple (E) 5-10) came in with a fold change (FC) of 4. In turn, `CC[C@H](C)[C@@H]1NC(=O)[C@@H]2C/C=C/C[C@H](NC(=O)[C@H](Cc3cnc[nH]3)NC(=O)[C@H](C)NC(=O)[C@H](C)NC1=O)C(=O)N[C@@H](Cc1c[nH]c3ccccc13)C(=O)N[C@@H]([C@@H](C)O)C(=O)N[C@H](C(=O)O)CSSC[C@H](N)C(=O)N[C@@H](C(C)C)C(=O)N[C@@H](C)C(=O)N[C@@H](Cc1ccc(O)cc1)C(=O)N2` (H-CVAY[AllylGly]IAAH[AllylGly]WTC-OH; disulfide 1-13; staple (E) 5-10) came in with a fold change (FC) of 4.

The target in another experiment is T1, Prostate-specific antigen (Homo sapiens). As to the kind of experiment: Stimulation of KLK3 (unknown origin) proteolytic activity using chromogenic chymotrypsin MeO-Suc-Arg-Pro-Tyr-pNA substrate at 20 ug/ml pre-incubated for 30 mins before addition of substrate by […] relative to untreated control.
For the compound `CC[C@H](C)[C@@H]1NC(=O)[C@@H](NC(=O)[C@H](Cc2ccc(O)cc2)NC(C)=O)C/C=C/C[C@@H](C(=O)N[C@@H](Cc2c[nH]c3ccccc23)C(N)=O)NC(=O)[C@H](Cc2cnc[nH]2)NC(=O)[C@H](Cc2cnc[nH]2)NC(=O)[C@H](CCC(=O)O)NC1=O` (Ac-Y[AllylGly]IEHH[AllylGly]W-NH2; staple (E) 2-7), the result was inactive.

On to `CC[C@H](C)[C@@H]1NC(=O)[C@@H](NC(=O)[C@H](Cc2ccc(O)cc2)NC(C)=O)C/C=C/C[C@@H](C(=O)N[C@@H](Cc2c[nH]c3ccccc23)C(=O)O)NC(=O)[C@H](Cc2cnc[nH]2)NC(=O)[C@H](Cc2cnc[nH]2)NC(=O)[C@H](CCC(=O)O)NC1=O` (Ac-Y[AllylGly]IEHH[AllylGly]W-OH; staple (E) 2-7), for which the result was inactive.

In turn, `CC[C@H](C)[C@@H]1NC(=O)[C@@H]2CSSC[C@H](NC(=O)[C@H](Cc3cnc[nH]3)NC(=O)[C@H](Cc3cnc[nH]3)NC(=O)[C@H](CCC(=O)O)NC1=O)C(=O)N[C@@H](Cc1c[nH]c3ccccc13)C(=O)N[C@@H](C)C(=O)N[C@H](C(N)=O)CSSC[C@H](N)C(=O)N[C@@H](C)C(=O)N[C@@H](C)C(=O)N[C@@H](Cc1ccc(O)cc1)C(=O)N2` (H-CAAYCIEHHCWAC-NH2; disulfide 1-13, 5-10) yielded an Activity of 127%. Compound `CC(C)[C@@H]1NC(=O)[C@@H](N)CSSC[C@@H](C(N)=O)NC(=O)[C@H]([C@@H](C)O)NC(=O)[C@H](Cc2c[nH]c3ccccc23)NC(=O)[C@H](C)NC(=O)[C@@H]2CSSC[C@H](NC(=O)[C@H](C)NC(=O)[C@H](Cc3ccc(O)cc3)NC(=O)[C@H](C)NC1=O)C(=O)N[C@@H](CCC(=O)O)C(=O)N[C@@H](Cc1cnc[nH]1)C(=O)N2` (H-CVAYACEHCAWTC-NH2; disulfide 1-13, 6-9) registered an Activity of 84%. Turning to `CC(C)[C@@H]1NC(=O)[C@@H](N)CSSC[C@@H](C(N)=O)NC(=O)[C@H]([C@@H](C)O)NC(=O)[C@H](Cc2c[nH]c3ccccc23)NC(=O)[C@@H]2CSSC[C@H](NC(=O)[C@H](Cc3ccc(O)cc3)NC(=O)[C@H](C)NC1=O)C(=O)N[C@@H](C)C(=O)N[C@@H](CCC(=O)O)C(=O)N[C@@H](Cc1cnc[nH]1)C(=O)N[C@@H](Cc1cnc[nH]1)C(=O)N2` (H-CVAYCAEHHCWTC-NH2; disulfide 1-13, 5-10), the Activity stood at 299%.

`CC(C)[C@@H]1NC(=O)[C@@H](N)CSSC[C@@H](C(N)=O)NC(=O)[C@H]([C@@H](C)O)NC(=O)[C@H](Cc2c[nH]c3ccccc23)NC(=O)[C@@H]2CSSC[C@H](NC(=O)[C@H](Cc3ccc(O)cc3)NC(=O)[C@H](C)NC1=O)C(=O)N[C@@H](Cc1ccccc1)C(=O)N[C@@H](CCC(=O)O)C(=O)N[C@@H](Cc1cnc[nH]1)C(=O)N[C@@H](Cc1cnc[nH]1)C(=O)N2` (H-CVAYCFEHHCWTC-NH2; disulfide 1-13, 5-10): the Activity came to 583%. Regarding `CC(C)[C@@H]1NC(=O)[C@@H](N)CSSC[C@@H](C(N)=O)NC(=O)[C@H]([C@@H](C)O)NC(=O)[C@H](Cc2c[nH]c3ccccc23)NC(=O)[C@@H]2CSSC[C@H](NC(=O)[C@H](Cc3ccc(O)cc3)NC(=O)[C@H](C)NC1=O)C(=O)NCC(=O)N[C@@H](CCC(=O)O)C(=O)N[C@@H](Cc1cnc[nH]1)C(=O)N[C@@H](Cc1cnc[nH]1)C(=O)N2` (H-CVAYCGEHHCWTC-NH2; disulfide 1-13, 5-10), the Activity came out at 152%.

Compound `CC[C@H](C)[C@@H]1NC(=O)[C@@H]2CSSC[C@H](NC(=O)[C@H](C)NC(=O)[C@H](C)NC(=O)[C@H](C)NC1=O)C(=O)N[C@@H](Cc1c[nH]c3ccccc13)C(=O)N[C@@H]([C@@H](C)O)C(=O)N[C@H](C(N)=O)CSSC[C@H](N)C(=O)N[C@@H](C(C)C)C(=O)N[C@@H](C)C(=O)N[C@@H](Cc1ccc(O)cc1)C(=O)N2` (H-CVAYCIAAACWTC-NH2; disulfide 1-13, 5-10) showed an Activity of 165%. On the same count and under the same terms, then `CC[C@H](C)[C@@H]1NC(=O)[C@@H]2CSSC[C@H](NC(=O)[C@H](Cc3cnc[nH]3)NC(=O)[C@H](C)NC(=O)[C@H](C)NC1=O)C(=O)N[C@@H](Cc1c[nH]c3ccccc13)C(=O)N[C@@H]([C@@H](C)O)C(=O)N[C@H](C(N)=O)CSSC[C@H](N)C(=O)N[C@@H](C(C)C)C(=O)N[C@@H](C)C(=O)N[C@@H](Cc1ccc(O)cc1)C(=O)N2` (H-CVAYCIAAHCWTC-NH2; disulfide 1-13, 5-10), with 476%; and `CC[C@H](C)[C@@H]1NC(=O)[C@@H]2CSSC[C@H](NC(=O)[C@H](C)NC(=O)[C@H](Cc3cnc[nH]3)NC(=O)[C@H](C)NC1=O)C(=O)N[C@@H](Cc1c[nH]c3ccccc13)C(=O)N[C@@H]([C@@H](C)O)C(=O)N[C@H](C(N)=O)CSSC[C@H](N)C(=O)N[C@@H](C(C)C)C(=O)N[C@@H](C)C(=O)N[C@@H](Cc1ccc(O)cc1)C(=O)N2` (H-CVAYCIAHACWTC-NH2; disulfide 1-13, 5-10), with 239%. `CC[C@H](C)[C@@H]1NC(=O)[C@@H]2CSSC[C@H](NC(=O)[C@H](C)NC(=O)[C@H](C)NC(=O)[C@H](CCC(=O)O)NC1=O)C(=O)N[C@@H](Cc1c[nH]c3ccccc13)C(=O)N[C@@H]([C@@H](C)O)C(=O)N[C@H](C(N)=O)CSSC[C@H](N)C(=O)N[C@@H](C(C)C)C(=O)N[C@@H](C)C(=O)N[C@@H](Cc1ccc(O)cc1)C(=O)N2` (H-CVAYCIEAACWTC-NH2; disulfide 1-13, 5-10) registered an Activity of 226%. Consider `CC[C@H](C)[C@@H]1NC(=O)[C@@H]2CSSC[C@H](NC(=O)[C@H](Cc3cnc[nH]3)NC(=O)[C@H](Cc3cnc[nH]3)NC(=O)[C@H](CCC(=O)O)NC1=O)C(=O)N[C@@H](Cc1c[nH]c3ccccc13)C(=O)N[C@@H]([C@@H](C)O)C(=O)N[C@H](C(=O)O)CSSC[C@H](N)C(=O)N[C@@H](C(C)C)C(=O)N[C@@H](C)C(=O)N[C@@H](Cc1ccc(O)cc1)C(=O)N2` (H-CVAYCIEHHCWTC-OH; disulfide 1-13, 5-10), for which the Activity came to 625%. `CC(C)C[C@@H]1NC(=O)[C@@H]2CSSC[C@H](NC(=O)[C@H](Cc3cnc[nH]3)NC(=O)[C@H](Cc3cnc[nH]3)NC(=O)[C@H](CCC(=O)O)NC1=O)C(=O)N[C@@H](Cc1c[nH]c3ccccc13)C(=O)N[C@@H]([C@@H](C)O)C(=O)N[C@H](C(N)=O)CSSC[C@H](N)C(=O)N[C@@H](C(C)C)C(=O)N[C@@H](C)C(=O)N[C@@H](Cc1ccc(O)cc1)C(=O)N2` (H-CVAYCLEHHCWTC-NH2; disulfide 1-13, 5-10) had an Activity of 436%. The same measure, in the same setting: the value for `CC(C)[C@@H]1NC(=O)[C@@H](N)CSSC[C@@H](C(=O)O)NC(=O)[C@H]([C@@H](C)O)NC(=O)[C@H](Cc2c[nH]c3ccccc23)NC(=O)[C@@H]2C/C=C/C[C@H](NC(=O)[C@H](Cc3ccc(O)cc3)NC(=O)[C@H](C)NC1=O)C(=O)N[C@@H](Cc1ccccc1)C(=O)N[C@@H](CCC(=O)O)C(=O)N[C@@H](Cc1cnc[nH]1)C(=O)N[C@@H](Cc1cnc[nH]1)C(=O)N2` (H-CVAY[AllylGly]FEHH[AllylGly]WTC-OH; disulfide 1-13; staple (E) 5-10) was 223%. On the same count and under the same terms, the value for `CC[C@H](C)[C@@H]1NC(=O)[C@@H]2C/C=C/C[C@H](NC(=O)[C@H](Cc3cnc[nH]3)NC(=O)[C@H](C)NC(=O)[C@H](C)NC1=O)C(=O)N[C@@H](Cc1c[nH]c3ccccc13)C(=O)N[C@@H]([C@@H](C)O)C(=O)N[C@H](C(=O)O)CSSC[C@H](N)C(=O)N[C@@H](C(C)C)C(=O)N[C@@H](C)C(=O)N[C@@H](Cc1ccc(O)cc1)C(=O)N2` (H-CVAY[AllylGly]IAAH[AllylGly]WTC-OH; disulfide 1-13; staple (E) 5-10) was 225%; that for `CC[C@H](C)[C@@H]1NC(=O)[C@@H]2C/C=C/C[C@H](NC(=O)[C@H](Cc3cnc[nH]3)NC(=O)[C@H](Cc3cnc[nH]3)NC(=O)[C@H](CCC(=O)O)NC1=O)C(=O)N[C@@H](Cc1c[nH]c3ccccc13)C(=O)N[C@@H]([C@@H](C)O)C(=O)N[C@H](C(=O)O)CSSC[C@H](N)C(=O)N[C@@H](C(C)C)C(=O)N[C@@H](C)C(=O)N[C@@H](Cc1ccc(O)cc1)C(=O)N2` (H-CVAY[AllylGly]IEHH[AllylGly]WTC-OH; disulfide 1-13; staple (E) 5-10) was 189%.

As for `CC(C)[C@@H]1NC(=O)[C@@H](N)CSSC[C@@H](C(=O)O)NC(=O)[C@H]([C@@H](C)O)NC(=O)[C@H](Cc2c[nH]c3ccccc23)NC(=O)CCCCCCCNC(=O)[C@H](Cc2ccc(O)cc2)NC(=O)[C@H](C)NC1=O` (H-CVAY[Aoc]WTC-OH; disulfide 1-8), the result was inactive.
